Source: PubChem BioAssay (NCI)
Values joined by “and” are separate entries in the source; they are usually repeats but may differ in a detail not shown here. Identical values can stand only once.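 Grown in 96-well plates, cells were treated for 48 hours with each compound at five concentrations. Insufficient inhibition: endpoint recorded as highest concentration tested. At the GI50, growth is halved. Definition used: TGI = concentration required for complete inhibition of growth.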

Tests used:
Assay in all cases: NCI anticancer screen, dose series, 48 h
M14 melanoma = system: M14 melanoma
SF-539 CNS = system: SF-539 CNS
LOX IMVI melanoma = system: LOX IMVI melanoma
NCI-H522 lung = system: NCI-H522 lung
UACC-257 melanoma = system: UACC-257 melanoma
HOP-92 NSCLC = system: HOP-92 NSCLC
SF-268 CNS = system: SF-268 CNS
ACHN renal = system: ACHN renal
SN12C renal = system: SN12C renal
HCT-15 colon = system: HCT-15 colon

`O=C(/C=C/c1cccs1)Nc1ncc(Cc2ccccc2F)s1` gave a GI50 (M14 melanoma) of 0.12 µM, a GI50 (SF-539 CNS) of 0.219 µM and a TGI (SF-539 CNS) of 0.649 µM. The GI50 (LOX IMVI melanoma) was 0.18 µM, the TGI (LOX IMVI melanoma) was over 100 µM and the GI50 (NCI-H522 lung) was 0.194 µM. For the same compound, the GI50 (UACC-257 melanoma) was over 100 µM, the TGI (UACC-257 melanoma) was over 100 µM and the GI50 (HOP-92 NSCLC) was 1.39 µM. It also gave a TGI (HOP-92 NSCLC) of over 100 µM, a GI50 (SF-268 CNS) of 0.757 µM and a TGI (SF-268 CNS) of over 100 µM. For the same compound, the GI50 (ACHN renal) was 0.462 µM, the TGI (ACHN renal) was over 100 µM and the GI50 (SN12C renal) was 0.633 µM. The TGI (SN12C renal) was over 100 µM, the GI50 (HCT-15 colon) was 0.123 µM and the TGI (HCT-15 colon) was over 100 µM.
`CN1C=CN(Cc2ccc(-c3ccccn3)nc2)[CH-]1.CN1C=CN(Cc2ccc(-c3ccccn3)nc2)[CH-]1.[Au+3]` gave a GI50 (M14 melanoma) of 2.82 µM, a TGI (M14 melanoma) of 20.6 µM and a GI50 (SF-539 CNS) of 2.34 µM. The TGI (SF-539 CNS) was 10.3 µM, the GI50 (LOX IMVI melanoma) was 2.89 µM and the TGI (LOX IMVI melanoma) was 13.4 µM. It also gave a GI50 (NCI-H522 lung) of 0.104 µM, a TGI (NCI-H522 lung) of 0.494 µM and a GI50 (UACC-257 melanoma) of 1.52 µM. The TGI (UACC-257 melanoma) was 7.47 µM, the GI50 (HOP-92 NSCLC) was 3.2 µM and the TGI (HOP-92 NSCLC) was 10.2 µM. For the same compound, the GI50 (SF-268 CNS) was 5.91 µM, the TGI (SF-268 CNS) was 26.2 µM and the GI50 (ACHN renal) was 14.6 µM. The TGI (ACHN renal) was over 100 µM, the GI50 (SN12C renal) was 2.98 µM and the TGI (SN12C renal) was over 45 µM. It also gave a GI50 (HCT-15 colon) of 1.6 µM and a TGI (HCT-15 colon) of over 54.6 µM.
Work on `O=C(Nc1ccc(-c2nc3ccc(NC(=O)c4ccc(Cl)cc4)cc3[nH]2)cc1)c1ccc(Cl)cc1` yielded a GI50 (M14 melanoma) of 5.28 µM, a TGI (M14 melanoma) of 18 µM and a GI50 (SF-539 CNS) of 0.0709 µM. For the same compound, the TGI (SF-539 CNS) was 6.22 µM, the GI50 (LOX IMVI melanoma) was 1.94 µM and the TGI (LOX IMVI melanoma) was 11.4 µM. The GI50 (NCI-H522 lung) was 2.95 µM, the TGI (NCI-H522 lung) was 9.36 µM and the GI50 (UACC-257 melanoma) was 11.5 µM. For the same compound, the TGI (UACC-257 melanoma) was 24.1 µM, the GI50 (HOP-92 NSCLC) was 2.68 µM and the TGI (HOP-92 NSCLC) was 11 µM. It also gave a GI50 (SF-268 CNS) of 5.78 µM, a TGI (SF-268 CNS) of 18.5 µM and a GI50 (ACHN renal) of 8.65 µM. It also gave a TGI (ACHN renal) of 21.1 µM, a GI50 (SN12C renal) of 12 µM and a TGI (SN12C renal) of 24.3 µM. The GI50 (HCT-15 colon) was 10.6 µM and the TGI (HCT-15 colon) was 27.4 µM.
`S=C1OC2C3C4CC5C3C(O1)C1C5C4C21` (stereo not drawn) was tested, and the TGI (M14 melanoma) was over 100 µM, the TGI (SF-539 CNS) was over 100 µM and the TGI (LOX IMVI melanoma) was over 100 µM. The TGI (NCI-H522 lung) was over 100 µM, the TGI (UACC-257 melanoma) was over 100 µM and the TGI (HOP-92 NSCLC) was over 100 µM. The TGI (SF-268 CNS) was over 100 µM, the TGI (ACHN renal) was over 100 µM and the TGI (SN12C renal) was over 100 µM. For the same compound, the TGI (HCT-15 colon) was over 100 µM.
In the case of `COC(=N)/C(=C1\OC(N)=C(c2ccc(Cl)cc2)C1=O)c1ccc(Cl)cc1`, the TGI (M14 melanoma) is reported as over 100 µM, the TGI (SF-539 CNS) is reported as over 100 µM and the TGI (LOX IMVI melanoma) is reported as over 100 µM. For the same compound, the TGI (NCI-H522 lung) was over 100 µM, the TGI (UACC-257 melanoma) was over 100 µM and the TGI (HOP-92 NSCLC) was over 100 µM. It also gave a TGI (SF-268 CNS) of over 100 µM, a TGI (ACHN renal) of over 100 µM and a TGI (SN12C renal) of over 100 µM. It also gave a TGI (HCT-15 colon) of over 100 µM.
In the case of `CCCC/C(C)=N/NC(N)=S`, the TGI (M14 melanoma) is reported as over 100 µM, the TGI (SF-539 CNS) is reported as over 100 µM and the TGI (LOX IMVI melanoma) is reported as over 100 µM. It also gave a TGI (NCI-H522 lung) of over 100 µM, a TGI (UACC-257 melanoma) of over 100 µM and a TGI (HOP-92 NSCLC) of over 100 µM. For the same compound, the TGI (SF-268 CNS) was over 100 µM, the TGI (ACHN renal) was over 100 µM and the TGI (SN12C renal) was over 100 µM. It also gave a TGI (HCT-15 colon) of over 100 µM.
For `O=C(O)C(O)C(O)C1[O][Sb][O]C1CO` (stereo not drawn), the GI50 (M14 melanoma) was over 100 µM, the TGI (M14 melanoma) was over 100 µM and the GI50 (SF-539 CNS) was over 100 µM. The TGI (SF-539 CNS) was over 100 µM, the GI50 (LOX IMVI melanoma) was over 100 µM and the TGI (LOX IMVI melanoma) was over 100 µM. The GI50 (NCI-H522 lung) was > 100 µM and 14 µM, the TGI (NCI-H522 lung) was > 100 µM and 38.9 µM and the GI50 (UACC-257 melanoma) was over 100 µM. For the same compound, the TGI (UACC-257 melanoma) was over 100 µM, the GI50 (HOP-92 NSCLC) was over 100 µM and the TGI (HOP-92 NSCLC) was over 100 µM. It also gave a GI50 (SF-268 CNS) of over 100 µM, a TGI (SF-268 CNS) of over 100 µM and a GI50 (ACHN renal) of over 100 µM. The TGI (ACHN renal) was over 100 µM, the GI50 (SN12C renal) was over 100 µM and the TGI (SN12C renal) was over 100 µM. It also gave a GI50 (HCT-15 colon) of over 100 µM and a TGI (HCT-15 colon) of over 100 µM.
Work on `Fc1cc(Nc2ccc3c(OCCCN4CCOCC4)cccc3n2)ccc1Cl` yielded a GI50 (M14 melanoma) of 2.05 µM, a TGI (M14 melanoma) of 4.42 µM and a GI50 (SF-539 CNS) of 1.95 µM. It also gave a TGI (SF-539 CNS) of 4.01 µM, a GI50 (LOX IMVI melanoma) of 1.71 µM and a TGI (LOX IMVI melanoma) of 3.17 µM. It also gave a GI50 (NCI-H522 lung) of 1.72 µM, a TGI (NCI-H522 lung) of 3.35 µM and a GI50 (UACC-257 melanoma) of 2.18 µM. The TGI (UACC-257 melanoma) was 4.25 µM, the GI50 (HOP-92 NSCLC) was 2.4 µM and the TGI (HOP-92 NSCLC) was 6.26 µM. It also gave a GI50 (SF-268 CNS) of 3.13 µM, a TGI (SF-268 CNS) of 17 µM and a GI50 (ACHN renal) of 3.09 µM. It also gave a TGI (ACHN renal) of 10.8 µM, a GI50 (SN12C renal) of 4.36 µM and a TGI (SN12C renal) of 19.3 µM. It also gave a GI50 (HCT-15 colon) of 1.4 µM and a TGI (HCT-15 colon) of 3.06 µM.
In the case of `COc1cc(Nc2ncc(-c3ccccc3)o2)cc(OC)c1OC`, the GI50 (M14 melanoma) is reported as 1.26 µM, the TGI (M14 melanoma) is reported as over 25 µM and the GI50 (SF-539 CNS) is reported as 1.53 µM. The TGI (SF-539 CNS) was over 25 µM, the GI50 (LOX IMVI melanoma) was 2.14 µM and the TGI (LOX IMVI melanoma) was over 25 µM. It also gave a GI50 (NCI-H522 lung) of 0.925 µM, a TGI (NCI-H522 lung) of over 25 µM and a GI50 (UACC-257 melanoma) of over 15.9 µM. For the same compound, the TGI (UACC-257 melanoma) was over 25 µM, the GI50 (HOP-92 NSCLC) was 4.27 µM and the TGI (HOP-92 NSCLC) was over 25 µM. For the same compound, the GI50 (SF-268 CNS) was 4.73 µM, the TGI (SF-268 CNS) was over 25 µM and the GI50 (ACHN renal) was 1.18 µM. For the same compound, the TGI (ACHN renal) was over 25 µM, the GI50 (SN12C renal) was 6.35 µM and the TGI (SN12C renal) was over 25 µM. It also gave a GI50 (HCT-15 colon) of 0.547 µM and a TGI (HCT-15 colon) of over 25 µM.
With `Cc1ccc(NC(=O)CCC(=O)C(C#N)c2ccc(Cl)cc2)cc1C` (stereo not drawn) the TGI (M14 melanoma) was over 100 µM, the TGI (SF-539 CNS) was over 100 µM and the TGI (LOX IMVI melanoma) was over 100 µM. For the same compound, the TGI (NCI-H522 lung) was over 100 µM, the TGI (UACC-257 melanoma) was over 100 µM and the TGI (HOP-92 NSCLC) was over 100 µM. The TGI (SF-268 CNS) was over 100 µM, the TGI (ACHN renal) was over 100 µM and the TGI (SN12C renal) was over 100 µM. It also gave a TGI (HCT-15 colon) of over 100 µM.
Work on `O=C(N/N=C\c1cc(Cl)ccc1O)N/N=C/c1cc(Cl)ccc1O` yielded a GI50 (M14 melanoma) of 5.24 µM, a TGI (M14 melanoma) of over 100 µM and a GI50 (SF-539 CNS) of 2.32 µM. It also gave a TGI (SF-539 CNS) of over 100 µM, a GI50 (LOX IMVI melanoma) of 2.14 µM and a TGI (LOX IMVI melanoma) of over 100 µM. The GI50 (NCI-H522 lung) was 0.616 µM, the TGI (NCI-H522 lung) was 19 µM and the GI50 (UACC-257 melanoma) was 6.6 µM. The TGI (UACC-257 melanoma) was over 100 µM, the GI50 (HOP-92 NSCLC) was 0.99 µM and the TGI (HOP-92 NSCLC) was 9.48 µM. For the same compound, the GI50 (SF-268 CNS) was 9.74 µM, the TGI (SF-268 CNS) was over 100 µM and the GI50 (ACHN renal) was 1.17 µM. It also gave a TGI (ACHN renal) of over 100 µM, a GI50 (SN12C renal) of over 100 µM and a TGI (SN12C renal) of over 100 µM. It also gave a GI50 (HCT-15 colon) of 0.676 µM and a TGI (HCT-15 colon) of over 100 µM.
`CCn1c(-c2cc3ccccc3cc2OC(=O)c2ccccc2)n[nH]c1=S` showed a GI50 (M14 melanoma) of over 50 µM, a TGI (M14 melanoma) of over 50 µM and a GI50 (SF-539 CNS) of over 50 µM. For the same compound, the TGI (SF-539 CNS) was over 50 µM, the GI50 (LOX IMVI melanoma) was 26.6 µM and the TGI (LOX IMVI melanoma) was over 50 µM. It also gave a GI50 (NCI-H522 lung) of 11 µM, a TGI (NCI-H522 lung) of 45.4 µM and a GI50 (UACC-257 melanoma) of over 50 µM. The TGI (UACC-257 melanoma) was over 50 µM, the GI50 (HOP-92 NSCLC) was over 50 µM and the TGI (HOP-92 NSCLC) was over 50 µM. For the same compound, the GI50 (SF-268 CNS) was over 50 µM, the TGI (SF-268 CNS) was over 50 µM and the GI50 (ACHN renal) was over 50 µM. For the same compound, the TGI (ACHN renal) was over 50 µM, the GI50 (SN12C renal) was 35.9 µM and the TGI (SN12C renal) was over 50 µM. It also gave a GI50 (HCT-15 colon) of over 50 µM and a TGI (HCT-15 colon) of over 50 µM.
